Data on eight compounds can be found in publication PMC6268252, “Synthesis and Antiviral Activity of Conformational Analogues of Leucamide A” (Molecules, 2012).

Read-outs that look alike come from different tables or passages of the source.

The IC50 is the concentration that inhibits the measured activity by half.

Data set [1] has as its system Influenza A virus H3N2 (A3 China/15/90). Briefly: Inhibition of influenza A virus replication (virus-induced CPE) in MDCK cells. The format is cell-based. Conditions: influenza A H3N2 (A3 China/15/90); for IC50: concentration required to reduce virus-induced CPE in MDCK cells by 50%; for activity against influenza A virus (in words): MDCK cells.
The next data set in a line: in vitro. Conditions: dog.
Data set [2] relates to Influenza A virus H3N2 (A3 China/15/90). Also on record: method as in PMID 16183283. Conditions: previously reported active compound; read-out: IC50 against influenza A virus; cited from earlier work.
The subject of data set [3] is influenza A virus, herpes simplex type 2 virus (HSV2), hepatitis B virus (HBV). More on the design: method as in PMID 16183283, PMID 18663717. Conditions: reported before; cited from earlier work.
In the next data set the test system is several tumor cell lines. More on the design: method as in PMID 12098321. Conditions: cited from earlier work.

Turning to `Cc1oc2nc1C(=O)N[C@@H](C)c1nc(co1)C(=O)NCCCCC(=O)N[C@@H](C(C)C)c1nc-2cs1` [Compound 5], in data set [1], the IC50 was 258 µM. This compound registered a CC50 in the data set “in vitro” of 578 µM.

Regarding `NC(=O)c1ncn([C@@H]2O[C@H](CO)[C@@H](O)[C@H]2O)n1` [Ribavirin, reference compound], in data set [1], the IC50 was 16 µM. The compound further showed a CC50 in “in vitro” of over 8200 µM.

As to `COc1ccccc1C(=O)N[C@H](c1nc(-c2nc(C(=O)O)c(C)o2)cs1)C(C)C` [Compound 10], the IC50 in data set [2] was 70 µM.

In data set [1], `Cc1oc2nc1C(=O)N[C@@H](C)c1nc(co1)C(=O)NCCCCCC(=O)N[C@@H](C(C)C)c1nc-2cs1` [Compound 6] yielded an IC50 of 41 µM. Further, the CC50 in the data set “in vitro” was 374 µM.

Regarding `Cc1oc2nc1C(=O)N[C@@H](C)c1nc(co1)C(=O)NCCCC(=O)N[C@@H](C(C)C)c1nc-2cs1` [Compound 4], half-maximal inhibition in data set [1] (IC50) required 115 µM. This compound also displayed a CC50 in “in vitro” of 595 µM.

For `Cc1oc2nc1C(=O)N[C@@H](C)c1nc(co1)C(=O)NCC(=O)N[C@@H](C(C)C)c1nc-2cs1` [Compound 2], in data set [1], the “activity against influenza A virus (in words)” value is “inactive”. Also, the CC50 in the data set “in vitro” was over 273 µM.

Take `Cc1oc2nc1C(=O)N[C@@H](C)c1nc(co1)C(=O)NCCC(=O)N[C@@H](C(C)C)c1nc-2cs1` [Compound 3]: the IC50 in data set [1] was 163 µM. The compound also gave a CC50 in “in vitro” of over 265 µM.

In the case of `Cc1oc2nc1C(=O)N[C@@H](C)c1nc(co1)C(=O)N[C@@H](CC(C)C)C(=O)N1CCC[C@H]1C(=O)N[C@@H](C(C)C)c1nc-2cs1` [Leucamide A], the “activity against influenza A virus (in words)” value in data set [1] was “inactive”. The “antiviral activity (in words)” value in data set [3] was “did not show any antiviral activity”. The “cytotoxicity toward tumor cell lines (in words)” value with several tumor cell lines is “moderately cytotoxic”. In addition, the CC50 in the data set “in vitro” was 787 µM.
